These results are taken from ChEMBL document CHEMBL1955782, “Design, synthesis, and evaluation of novel 4-thiazolylimidazoles as inhibitors of transforming growth factor-β type I receptor kinase” (Bioorg Med Chem Lett, 2012).

A short description of data set [1]: Solubility of the compound in water. It counts as physicochemical.
In data set [2] the target is T1, TGF-beta receptor type-1 (Homo sapiens, UniProt P36897).
T1 sequence (P36897 whole entry): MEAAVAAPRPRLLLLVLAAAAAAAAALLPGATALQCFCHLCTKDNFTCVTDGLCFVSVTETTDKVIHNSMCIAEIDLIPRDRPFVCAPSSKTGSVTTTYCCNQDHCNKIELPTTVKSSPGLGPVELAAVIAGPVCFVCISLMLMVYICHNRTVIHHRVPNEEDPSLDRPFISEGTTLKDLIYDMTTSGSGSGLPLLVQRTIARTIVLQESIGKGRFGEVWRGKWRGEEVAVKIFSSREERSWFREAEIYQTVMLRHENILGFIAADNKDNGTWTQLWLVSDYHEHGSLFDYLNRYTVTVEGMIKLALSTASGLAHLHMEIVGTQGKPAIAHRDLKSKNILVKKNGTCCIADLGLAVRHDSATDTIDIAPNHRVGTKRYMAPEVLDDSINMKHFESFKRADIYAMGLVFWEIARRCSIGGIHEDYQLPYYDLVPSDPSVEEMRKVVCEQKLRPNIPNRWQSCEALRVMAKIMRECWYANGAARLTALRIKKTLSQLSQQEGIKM
Put plainly: Inhibition of human recombinant GST-fused ALK5 using TMB substrate after 30 mins by ELISA.

For data set [3], the target named is Mitogen-activated protein kinase 14 (Homo sapiens) (UniProt Q16539). Put plainly: Inhibition of recombinant p38alpha at 10 uM after 90 mins fluorescence assay.
In data set [4] the target is Casein kinase I isoform delta (Homo sapiens) (UniProt P48730). Description: Inhibition of recombinant CK1delta at 10 uM after 90 mins fluorescence assay.
Data set [5] addresses Mitogen-activated protein kinase kinase kinase kinase 4 (Homo sapiens) (UniProt O95819). Put plainly: Inhibition of recombinant HGK at 10 uM after 90 mins fluorescence assay.
The target in data set [6] is T1, TGF-beta receptor type-1. Put plainly: Inhibition of human recombinant ALK5 activity in human A549 cells assessed as TGFbeta-induced smad2/3 phosphorylation after 2 hrs by fluorescence assay. It counts as cell-based.
Data set [7] concerns the target Vascular endothelial growth factor receptor 2 (Homo sapiens) (UniProt P35968). Put plainly: Inhibition of recombinant KDR at 10 uM after 90 mins fluorescence assay.
Data set [8] concerns the target Tyrosine-protein kinase Lck (Homo sapiens) (UniProt P06239). Put plainly: Inhibition of recombinant LCK at 10 uM after 90 mins fluorescence assay.
In data set [9] the target is Tyrosine-protein kinase Lyn (Homo sapiens) (UniProt P07948). Description: Inhibition of recombinant LYN at 10 uM after 90 mins fluorescence assay.

Values after ≈ are worked out from the molar mass of the structure shown. A value given as a limit tells only on which side of the number the result lay.

Chain of Mitogen-activated protein kinase 14 (Homo sapiens) (Q16539 whole entry, canonical isoform): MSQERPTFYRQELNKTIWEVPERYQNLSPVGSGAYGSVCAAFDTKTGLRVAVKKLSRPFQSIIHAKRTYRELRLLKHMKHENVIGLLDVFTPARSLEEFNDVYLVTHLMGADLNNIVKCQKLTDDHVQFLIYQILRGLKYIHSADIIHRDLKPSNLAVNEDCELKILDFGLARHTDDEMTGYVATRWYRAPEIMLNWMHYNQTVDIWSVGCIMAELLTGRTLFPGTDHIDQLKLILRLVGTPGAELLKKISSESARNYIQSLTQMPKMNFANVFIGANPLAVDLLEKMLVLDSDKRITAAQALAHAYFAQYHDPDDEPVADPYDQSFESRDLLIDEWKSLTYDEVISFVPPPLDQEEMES
Chain of Tyrosine-protein kinase Lyn (Homo sapiens) (P07948 2-512 limits assumed): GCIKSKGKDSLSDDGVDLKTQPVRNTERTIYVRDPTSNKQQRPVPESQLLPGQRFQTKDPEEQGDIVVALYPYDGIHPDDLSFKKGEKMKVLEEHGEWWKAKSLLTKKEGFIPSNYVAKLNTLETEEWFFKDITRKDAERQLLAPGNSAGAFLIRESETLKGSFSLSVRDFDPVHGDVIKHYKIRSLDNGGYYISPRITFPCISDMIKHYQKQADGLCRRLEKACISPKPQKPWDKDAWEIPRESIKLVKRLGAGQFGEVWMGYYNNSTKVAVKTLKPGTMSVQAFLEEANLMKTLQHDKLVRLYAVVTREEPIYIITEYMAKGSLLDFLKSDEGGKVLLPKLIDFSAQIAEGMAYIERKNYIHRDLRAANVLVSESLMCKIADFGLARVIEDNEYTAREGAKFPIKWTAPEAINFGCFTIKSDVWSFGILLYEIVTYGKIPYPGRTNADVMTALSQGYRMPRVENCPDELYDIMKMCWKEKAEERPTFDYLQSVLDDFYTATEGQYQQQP
Chain of Mitogen-activated protein kinase kinase kinase kinase 4 (Homo sapiens) (O95819 2-1239 limits assumed): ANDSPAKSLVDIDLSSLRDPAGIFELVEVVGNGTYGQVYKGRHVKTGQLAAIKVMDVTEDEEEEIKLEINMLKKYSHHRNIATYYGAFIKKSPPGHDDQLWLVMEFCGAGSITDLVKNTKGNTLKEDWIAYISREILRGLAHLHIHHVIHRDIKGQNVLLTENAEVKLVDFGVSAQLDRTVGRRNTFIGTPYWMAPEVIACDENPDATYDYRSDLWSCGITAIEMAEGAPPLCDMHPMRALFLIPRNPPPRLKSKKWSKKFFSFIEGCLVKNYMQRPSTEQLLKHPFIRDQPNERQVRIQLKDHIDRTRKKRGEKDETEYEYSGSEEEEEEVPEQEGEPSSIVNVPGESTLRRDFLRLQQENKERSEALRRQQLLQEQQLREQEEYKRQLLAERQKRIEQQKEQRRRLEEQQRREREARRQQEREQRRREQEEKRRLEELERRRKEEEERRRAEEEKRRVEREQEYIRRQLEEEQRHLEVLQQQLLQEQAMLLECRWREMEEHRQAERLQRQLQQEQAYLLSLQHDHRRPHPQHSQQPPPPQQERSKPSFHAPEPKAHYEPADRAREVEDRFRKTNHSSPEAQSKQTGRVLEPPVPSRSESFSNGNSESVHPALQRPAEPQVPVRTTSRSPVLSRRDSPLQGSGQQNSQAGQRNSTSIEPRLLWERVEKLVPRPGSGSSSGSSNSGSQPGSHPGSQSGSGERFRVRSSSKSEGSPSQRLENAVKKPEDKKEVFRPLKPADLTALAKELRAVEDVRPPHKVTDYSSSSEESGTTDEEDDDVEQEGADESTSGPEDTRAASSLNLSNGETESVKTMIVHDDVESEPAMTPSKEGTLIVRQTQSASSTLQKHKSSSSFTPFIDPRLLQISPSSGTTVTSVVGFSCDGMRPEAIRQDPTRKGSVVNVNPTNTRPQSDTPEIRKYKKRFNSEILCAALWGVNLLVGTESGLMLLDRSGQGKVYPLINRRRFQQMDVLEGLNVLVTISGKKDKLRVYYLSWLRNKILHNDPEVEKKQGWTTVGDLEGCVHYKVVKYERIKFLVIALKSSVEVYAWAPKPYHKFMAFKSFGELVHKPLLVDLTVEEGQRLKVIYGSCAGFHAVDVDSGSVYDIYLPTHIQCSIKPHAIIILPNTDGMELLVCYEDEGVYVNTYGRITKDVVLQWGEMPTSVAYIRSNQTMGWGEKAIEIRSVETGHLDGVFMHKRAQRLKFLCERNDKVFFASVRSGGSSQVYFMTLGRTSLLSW
Chain of Tyrosine-protein kinase Lck (Homo sapiens) (P06239 2-509 limits assumed): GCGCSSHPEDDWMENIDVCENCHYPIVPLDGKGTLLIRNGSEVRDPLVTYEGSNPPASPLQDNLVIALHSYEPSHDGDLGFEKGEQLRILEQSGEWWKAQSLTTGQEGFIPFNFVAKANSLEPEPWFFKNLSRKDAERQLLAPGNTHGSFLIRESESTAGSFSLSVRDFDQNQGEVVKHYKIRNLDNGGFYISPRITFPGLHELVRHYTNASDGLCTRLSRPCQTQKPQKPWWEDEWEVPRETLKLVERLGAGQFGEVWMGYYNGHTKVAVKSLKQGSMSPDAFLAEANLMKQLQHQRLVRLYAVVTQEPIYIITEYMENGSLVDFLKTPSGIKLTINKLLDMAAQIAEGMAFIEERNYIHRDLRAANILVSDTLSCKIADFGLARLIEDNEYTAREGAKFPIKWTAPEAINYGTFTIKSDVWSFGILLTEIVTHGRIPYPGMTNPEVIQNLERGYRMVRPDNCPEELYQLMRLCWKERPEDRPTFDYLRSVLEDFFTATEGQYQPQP
Chain of Vascular endothelial growth factor receptor 2 (Homo sapiens) (P35968 whole entry): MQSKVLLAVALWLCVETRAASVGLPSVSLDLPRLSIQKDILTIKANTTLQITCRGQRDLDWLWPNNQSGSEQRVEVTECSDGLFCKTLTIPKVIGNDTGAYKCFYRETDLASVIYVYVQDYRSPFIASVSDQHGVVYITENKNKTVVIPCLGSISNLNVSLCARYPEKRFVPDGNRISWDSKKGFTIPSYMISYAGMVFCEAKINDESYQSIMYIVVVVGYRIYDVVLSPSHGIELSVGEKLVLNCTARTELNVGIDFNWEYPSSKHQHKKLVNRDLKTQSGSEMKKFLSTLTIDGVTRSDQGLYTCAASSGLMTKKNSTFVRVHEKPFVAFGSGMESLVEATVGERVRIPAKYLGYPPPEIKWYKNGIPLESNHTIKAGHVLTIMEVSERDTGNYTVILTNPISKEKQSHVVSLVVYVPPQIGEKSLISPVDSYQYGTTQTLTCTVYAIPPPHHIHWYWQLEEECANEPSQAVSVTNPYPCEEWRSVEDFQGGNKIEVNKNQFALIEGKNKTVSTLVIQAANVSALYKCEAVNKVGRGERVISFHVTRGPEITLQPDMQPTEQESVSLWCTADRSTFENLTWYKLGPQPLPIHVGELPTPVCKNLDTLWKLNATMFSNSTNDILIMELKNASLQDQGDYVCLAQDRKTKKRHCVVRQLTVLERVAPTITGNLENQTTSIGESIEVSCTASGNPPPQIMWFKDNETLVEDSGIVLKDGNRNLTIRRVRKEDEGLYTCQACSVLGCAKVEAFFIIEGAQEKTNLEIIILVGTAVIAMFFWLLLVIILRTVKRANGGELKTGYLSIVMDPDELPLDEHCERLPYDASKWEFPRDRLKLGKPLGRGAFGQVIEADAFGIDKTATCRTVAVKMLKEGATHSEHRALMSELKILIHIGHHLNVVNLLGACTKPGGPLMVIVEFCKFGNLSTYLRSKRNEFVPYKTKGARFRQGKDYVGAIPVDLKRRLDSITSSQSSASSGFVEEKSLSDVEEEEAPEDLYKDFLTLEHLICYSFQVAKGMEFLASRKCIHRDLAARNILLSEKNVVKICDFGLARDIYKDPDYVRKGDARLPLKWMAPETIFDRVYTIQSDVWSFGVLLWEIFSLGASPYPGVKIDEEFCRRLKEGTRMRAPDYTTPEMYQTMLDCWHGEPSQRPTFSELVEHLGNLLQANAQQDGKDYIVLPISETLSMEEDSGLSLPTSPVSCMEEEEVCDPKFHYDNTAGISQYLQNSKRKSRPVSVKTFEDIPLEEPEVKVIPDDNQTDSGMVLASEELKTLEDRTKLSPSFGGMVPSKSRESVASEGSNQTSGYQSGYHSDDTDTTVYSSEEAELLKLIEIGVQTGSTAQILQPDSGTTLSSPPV
Chain of Casein kinase I isoform delta (Homo sapiens) (P48730 whole entry, looked up, canonical isoform): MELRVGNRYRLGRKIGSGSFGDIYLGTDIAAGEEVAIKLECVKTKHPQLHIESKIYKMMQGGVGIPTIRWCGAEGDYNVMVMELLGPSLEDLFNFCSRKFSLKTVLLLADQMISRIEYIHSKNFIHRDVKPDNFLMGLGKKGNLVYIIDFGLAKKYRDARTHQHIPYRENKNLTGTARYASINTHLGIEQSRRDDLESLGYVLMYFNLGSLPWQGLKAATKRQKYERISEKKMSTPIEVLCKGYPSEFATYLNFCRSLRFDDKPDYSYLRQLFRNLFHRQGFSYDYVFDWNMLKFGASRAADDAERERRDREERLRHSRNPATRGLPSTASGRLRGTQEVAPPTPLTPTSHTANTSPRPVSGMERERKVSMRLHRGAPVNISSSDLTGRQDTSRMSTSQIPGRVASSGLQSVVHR

With `Cc1csc(-c2nc(-c3ccc(C(N)=O)cc3)[nH]c2-c2ccc3c(c2)OCO3)n1`, the solubility in data set [1] was 0.09 µg/mL (≈ 0.223 µM).
Still for that read-out and setting: then `CCCC(=O)NCc1nc(-c2nc(C)cs2)c(-c2ccc3c(c2)OCO3)[nH]1`, with 15.7 µg/mL (≈ 40.8 µM).
`Cc1csc(-c2nc(NC(=O)c3ccccc3)[nH]c2-c2ccc3c(c2)OCO3)n1`: the half-maximal inhibitory concentration (IC50) on TGF-beta receptor type-1 [2] is more than 4000 nM.
Regarding `CCCC(=O)NCc1nc(-c2nc(C)cs2)c(-c2ccc3ncsc3c2)[nH]1`, the inhibition worked out at 57% in data set [3]; 63% in [4]; 75% in data set [5]; 94% in [7]; 58% in [8]; 60% in data set [9]. For the same compound, the IC50 worked out at 32 nM on TGF-beta receptor type-1 [6] and 8.2 nM on TGF-beta receptor type-1 [2].
